Results: paper PMC7673538 (PLoS Biology, 2020)
“And” between values parts separate entries of the source, which are not always exact repeats. Equal entries are not always repeated. Where two headings read alike, the source gives them in different places.

Assays:
in vitro [1] = conditions: monkey
human DAT = biological target: T1, human DAT (Homo sapiens, UniProt Q01959); type: cell-based; conditions: for DAT, Mean (Figure 8B): Control = 100; for DAT, Mean as % (Figure 8B): Control = 100%
T1 construct: expressed in transfected cells; host or cells: HEK293 (gift of Dr. Hoener, F. Hoffmann-La Roche)
T1 sequence (Q01959 whole entry): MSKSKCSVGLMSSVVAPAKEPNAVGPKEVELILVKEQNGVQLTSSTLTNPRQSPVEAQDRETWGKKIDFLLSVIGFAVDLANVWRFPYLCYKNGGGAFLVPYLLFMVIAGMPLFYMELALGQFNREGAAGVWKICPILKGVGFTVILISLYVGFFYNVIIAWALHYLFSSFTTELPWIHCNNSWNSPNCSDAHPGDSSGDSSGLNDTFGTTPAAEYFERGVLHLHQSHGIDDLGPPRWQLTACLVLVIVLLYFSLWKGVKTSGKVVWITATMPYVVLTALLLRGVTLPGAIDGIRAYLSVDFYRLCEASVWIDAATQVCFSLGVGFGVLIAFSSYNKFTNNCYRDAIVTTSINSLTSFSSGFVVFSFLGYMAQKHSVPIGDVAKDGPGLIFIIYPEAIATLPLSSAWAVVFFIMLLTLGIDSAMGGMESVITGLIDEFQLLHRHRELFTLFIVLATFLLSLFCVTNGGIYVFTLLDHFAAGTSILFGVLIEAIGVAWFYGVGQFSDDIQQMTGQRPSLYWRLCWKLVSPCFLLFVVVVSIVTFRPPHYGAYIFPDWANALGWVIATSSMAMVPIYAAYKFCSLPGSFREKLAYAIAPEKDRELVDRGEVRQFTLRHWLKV

[2] = system: representative EVs and RVs; type: cell-based
EV-D68 = test: microbe, parasite or virus in culture; type: cell-based, enterovirus D68; conditions: for EC50: Enterovirus D
human SERT = biological target: T2, human SERT (Homo sapiens, UniProt P31645); type: cell-based; conditions: for SERT, Mean (Figure 8B): Control = 100.00; for SERT, Mean as % (Figure 8B): Control = 100%
T2 construct: expressed in transfected cells; host or cells: HEK293 (gift of Dr. Hoener, F. Hoffmann-La Roche)
T2 sequence (P31645 whole entry): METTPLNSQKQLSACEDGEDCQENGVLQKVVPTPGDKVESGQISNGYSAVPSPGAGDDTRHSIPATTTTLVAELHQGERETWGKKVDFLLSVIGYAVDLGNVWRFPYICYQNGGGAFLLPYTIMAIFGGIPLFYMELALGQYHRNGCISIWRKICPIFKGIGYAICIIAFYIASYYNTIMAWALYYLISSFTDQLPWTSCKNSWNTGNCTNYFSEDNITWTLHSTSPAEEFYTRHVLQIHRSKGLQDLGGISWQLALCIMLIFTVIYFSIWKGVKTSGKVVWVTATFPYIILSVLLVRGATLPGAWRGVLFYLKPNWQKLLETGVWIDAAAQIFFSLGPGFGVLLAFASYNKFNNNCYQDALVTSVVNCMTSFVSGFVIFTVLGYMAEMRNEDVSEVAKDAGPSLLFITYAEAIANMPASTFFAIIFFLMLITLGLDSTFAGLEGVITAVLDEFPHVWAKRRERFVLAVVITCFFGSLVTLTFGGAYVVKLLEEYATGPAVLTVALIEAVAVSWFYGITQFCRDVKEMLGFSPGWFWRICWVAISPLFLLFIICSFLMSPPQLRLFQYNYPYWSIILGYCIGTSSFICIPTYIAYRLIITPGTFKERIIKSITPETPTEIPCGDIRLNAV

CV-B3 [3] = test: microbe, parasite or virus in culture; type: cell-based, coxsackievirus B3; conditions: Enterovirus B, CVB3, BGM
CV-A24v = test: microbe, parasite or virus in culture; type: cell-based, coxsackievirus A24v
in vitro [4] = conditions: human
in vitro [5] = conditions: human; remark: listed apart in the source
HRV-B14 = test: microbe, parasite or virus in culture; type: cell-based, human rhinovirus; conditions: Human rhinovirus sp.
human NET = biological target: T3, human NET (Homo sapiens, UniProt P23975); type: cell-based; conditions: for NET, Mean (Figure 8B): Control = 100; for NET, Mean as % (Figure 8B): Control = 100%
T3 construct: expressed in transfected cells; host or cells: HEK293 (gift of Dr. Hoener, F. Hoffmann-La Roche)
T3 sequence (P23975 whole entry): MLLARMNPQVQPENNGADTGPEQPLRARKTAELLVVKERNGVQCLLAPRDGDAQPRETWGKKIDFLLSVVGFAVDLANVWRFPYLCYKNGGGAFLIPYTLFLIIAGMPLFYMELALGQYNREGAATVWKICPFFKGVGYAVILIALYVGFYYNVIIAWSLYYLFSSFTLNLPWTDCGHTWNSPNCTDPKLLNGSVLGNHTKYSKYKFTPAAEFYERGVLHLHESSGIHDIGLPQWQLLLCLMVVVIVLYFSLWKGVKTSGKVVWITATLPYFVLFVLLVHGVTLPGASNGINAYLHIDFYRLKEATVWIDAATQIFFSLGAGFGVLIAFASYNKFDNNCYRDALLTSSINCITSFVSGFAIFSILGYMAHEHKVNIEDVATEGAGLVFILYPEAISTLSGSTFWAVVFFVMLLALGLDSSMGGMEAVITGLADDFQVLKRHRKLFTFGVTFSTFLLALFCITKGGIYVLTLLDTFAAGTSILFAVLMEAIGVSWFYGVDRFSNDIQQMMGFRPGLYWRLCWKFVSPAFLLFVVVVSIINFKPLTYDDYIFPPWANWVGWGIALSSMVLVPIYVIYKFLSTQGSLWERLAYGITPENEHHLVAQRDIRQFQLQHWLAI

PV-1 = test: microbe, parasite or virus in culture; type: cell-based, poliovirus 1; conditions: Enterovirus C
CV-B3 [6] = test: microbe, parasite or virus in culture; type: cell-based, coxsackievirus B3; conditions: for EC50: Enterovirus B
HRV-A2 = test: microbe, parasite or virus in culture; type: cell-based, human rhinovirus; conditions: Human rhinovirus sp., HRVA2, HeLa R19, read-out: EC50 HRV-A2
CV-B3 [7] = test: microbe, parasite or virus in culture; type: cell-based, coxsackievirus B3; conditions: Enterovirus B

O=C(c1ccco1)N(Cc1ccc(F)cc1)c1ccccc1 [Compound 19b, N-(4-Fluorobenzyl)-N-phenylfuran-2-carboxamide]
CC50 (in vitro [1]; CC50): > 100000 nM
CC50 (in vitro [1]; CC50 BGM Average): > 100000 nM
CC50 (in vitro [1]; Exp 1 CC50 BGM): > 100000 nM
CC50 (in vitro [1]; Exp 2 CC50 BGM): > 100000 nM
DAT, Mean (Figure 8B) (human DAT; 1µM): 94.861
DAT, Mean as % (Figure 8B) (human DAT; 1µM): 95%
DAT, Mean (Figure 8B) (human DAT; 100µM): 75.9783
DAT, Mean as % (Figure 8B) (human DAT; 100µM): 76%
inhibition of DAT function (in words) (human DAT; HEK293 cells expressing human DAT, 1 μM or 100 μM): neither 12a, 19b, 19d, nor the combined compound 12b inhibited
inhibition of contemporary/clinical isolates of EV-A71, CV-A24v and EV-D68 (in words) [2]: inhibited all clinical isolates of EV-A71, CV-A24v, and EV-D68 tested
spectrum of antiviral activity (in words) [2]: inhibited all representative EVs and RVs
cross-resistance of 19d-resistant EV-D68 virus pools (in words) (EV-D68): cross-resistance
EC50 (EV-D68; EVD68, HeLa R19, […], read-out: EC50 Exp1): 1870 nM
EC50 (EV-D68; EVD68, HeLa R19, read-out: EC50 Average): 830 nM
EC50 (EV-D68; EVD68, HeLa R19, read-out: EC50 EV-D68): 500 ± 260 nM
EC50 (EV-D68; EVD68, HeLa R19, read-out: EC50 EV-D68 strain 4310900947): 1850 ± 180 nM
EC50 (EV-D68; EVD68, HeLa R19, read-out: EC50 EV-D68 strain 4310901348): 1710 ± 680 nM
EC50 (EV-D68; EVD68, HeLa R19, read-out: EC50 EV-D68 strain 4310902042): 910 ± 920 nM
EC50 (EV-D68; EVD68, HeLa R19, read-out: EC50 EV-D68 strain 4310902284): 1290 ± 210 nM
EC50 (EV-D68; EVD68, HeLa R19, read-out: EC50 EV-D68 strain 4311000742): 1310 ± 900 nM
EC50 (EV-D68; EVD68, HeLa R19, read-out: EC50 EV-D68 strain Fermon): 580 ± 100 nM
EC50 (EV-D68; EVD68 / genotype 2c, HeLa R19, read-out: EC50 EV-D68 WT): 830 ± 90 nM
SERT, Mean (Figure 8B) (human SERT; 1µM): 104.08
SERT, Mean as % (Figure 8B) (human SERT; 1µM): 104%
SERT, Mean (Figure 8B) (human SERT; 100µM): 84.31
SERT, Mean as % (Figure 8B) (human SERT; 100µM): 84%
inhibition of SERT-mediated uptake (in words) (human SERT; HEK293 cells expressing human SERT, 1 and 100 μM): neither 12a, 19b, 19d, nor the combined compound 12b inhibited
EC50 (CV-B3 [3]; read-out: EC50 BGM Average): 140 nM
EC50 (CV-B3 [3]; read-out: Exp 1 EC50 BGM): 180 nM
EC50 (CV-B3 [3]; read-out: Exp 2 EC50 BGM): 90 nM
EC50 (CV-A24v; Coxsackievirus, HeLa R19, read-out: EC50 CV-A24v strain 110386): 2530 ± 450 nM
EC50 (CV-A24v; Coxsackievirus, HeLa R19, read-out: EC50 CV-A24v strain 110389): 5650 ± 230 nM
EC50 (CV-A24v; Coxsackievirus, HeLa R19, read-out: EC50 CV-A24v strain 110390): 4160 ± 170 nM
EC50 (CV-A24v; Coxsackievirus, HeLa R19, read-out: EC50 CV-A24v strain 110392): 4350 ± 180 nM
EC50 (CV-A24v; Coxsackievirus, HeLa R19, read-out: EC50 Exp2): 2980 nM
EC50 (CV-A24v; read-out: EC50 Exp2): 5420 nM and 4320 nM and 4530 nM
CC50 (in vitro [4]; CC50): > 100000 nM
CC50 (in vitro [4]; CC50 Hap1 Average): > 100000 nM
CC50 (in vitro [4]; Exp 1 CC50 Hap1): > 100000 nM
CC50 (in vitro [4]; Exp 2 CC50 Hap1): > 100000 nM
CC50 (in vitro [5]; CC50 Average): > 30000 nM
CC50 (in vitro [5]; CC50 HelaR19 Average): > 100000 nM
CC50 (in vitro [5]; Exp 1 CC50): > 30000 nM
CC50 (in vitro [5]; Exp 1 CC50 HelaR19): > 100000 nM
CC50 (in vitro [5]; Exp2 CC50): > 30000 nM
CC50 (in vitro [5]; Exp 2 CC50 HelaR19): > 100000 nM
EC50 (HRV-B14; HRVB14, HeLa R19, read-out: EC50 Exp1): 11100 nM
EC50 (HRV-B14; HRVB14, HeLa R19, read-out: EC50 Exp2): 9900 nM
EC50 (HRV-B14; HRVB14, HeLa R19, read-out: EC50 HRV-B14): 10500 ± 610 nM
NET, Mean (Figure 8B) (human NET; 1µM): 124.304
NET, Mean as % (Figure 8B) (human NET; 1µM): 124%
NET, Mean (Figure 8B) (human NET; 100µM): 113.384
NET, Mean as % (Figure 8B) (human NET; 100µM): 113%
inhibition of NET function (in words) (human NET; HEK293 cells expressing human NET, 1 μM or 100 μM): neither 12a, 19b, 19d, nor the combined compound 12b inhibited
EC50 (PV-1; HeLa R19, read-out: EC50 Exp1): 8500 nM
EC50 (PV-1; HeLa R19, read-out: EC50 Exp2): 9650 nM
EC50 (PV-1; HeLa R19, read-out: EC50 PV-1): 9080 ± 540 nM
cross-resistance of 19d-resistant CV-B3 virus pools (in words) (CV-B3 [6]): cross-resistant
increase or decrease of antiviral activity against CV-B3 (CV-B3 [6]): less than 3 fold
EC50 (CV-B3 [6]; CVB3, HeLa R19, read-out: CV-B3 EC50 Average): 830 nM
EC50 (CV-B3 [6]; CVB3, HeLa R19, read-out: CV-B3 Exp 1 EC50): 730 nM
EC50 (CV-B3 [6]; CVB3, HeLa R19, read-out: CV-B3 Exp2 EC50): 930 nM
EC50 (CV-B3 [6]; CVB3, HeLa R19, read-out: EC50 Exp1): 220 nM
EC50 (CV-B3 [6]; CVB3, HeLa R19, read-out: EC50 HelaR19 Average): 680 nM
EC50 (CV-B3 [6]; CVB3, HeLa R19, read-out: Exp 1 EC50 HelaR19): 460 nM
EC50 (CV-B3 [6]; CVB3, HeLa R19, read-out: Exp 2 EC50 HelaR19): 890 nM
EC50 (CV-B3 [6]; CVB3 / genotype 2c, HeLa R19, read-out: EC50 CV-B3 WT): 290 ± 50 nM
EC50 (HRV-A2): 22200 ± 610 nM
cytotoxicity (in words) (HeLa R19 cells): did not show any cytotoxicity
EC50 (CV-B3 [7]; CVB3, HAP1, read-out: EC50 Hap1 Average): 350 nM
EC50 (CV-B3 [7]; CVB3, HAP1, read-out: Exp 1 EC50 Hap1): 150 nM
EC50 (CV-B3 [7]; CVB3, HAP1, read-out: Exp 2 EC50 Hap1): 550 nM
